Measured values: patent US20180353512A1, “COMBINATION THERAPIES FOR TREATING B-CELL MALIGNANCIES” (GILEAD SCIENCES, INC., priority 2015, published 2018)
Like-named read-outs stand apart in the source and are kept apart here.

How the values were obtained:
Format in all cases: cell-based
TMD-8 cells = assay: CellTiter-Glo cell viability assay, four days (Example 1A); settings: for EC50: Homo sapiens; for growth of cell line: single agent
Description: (§1) In vitro anti-proliferative activity of agents was assessed using CellTiter-Glo™ Assay (Promega), which quantifies cellular ATP level. Test compounds were dissolved in DMSO to prepare 10 mM stock solutions. […] For drug combination studies, a two or three fold horizontal serial dilution pattern was used for Compound B and combined with Idelalisib using a two, three, or four fold vertical serial dilution pattern. […] The final DMSO concentration in the test media was 0.2%. Each combination used replicates of four plates to generate sufficient data for evaluation of synergy scores. […] The assay growth medium for all lines was RPMI supplemented with 20% FBS and […] penicillin-streptomycin. Seeding density was optimized for growth rate over 96 hours for each cell line and was between 10,000-30,000 cells per well of 96 well plates. After four days incubation with agents at 37° C./5% CO2, the CellTiter-Glo™ assay was performed following the manufacturer's protocol. Relative luminescence units were quantified using a Biotek Synergy luminometer.
(§2) Data from a plate was excluded if either Z′<0.5 or the growth of the cell lines was less than one doubling in the four day assay period. Z′ was calculated using the formula: Z′=[1−((3(σstau+σDMSO))/(|μDMSO−μstau|)] where σstau and σDMSO are the standard deviation of the 100% inhibited staurosporine and 0% inhibited DMSO control wells, respectively. μDMSO and μstau are the mean of the […] control wells, respectively. The raw Cell Titer Glo signal was normalized according to the following formula: [(raw value)−(100% inhibited staurosporine control)]/[(DMSO control value)−(100% inhibited staurosporine control)].
(§3) EC50 was determined using GraphPad Prism or Dose Response software by fitting the data to a four parameters variable slope model. […] For combination studies, the EC50 at each test article concentration was determined from graphs of the EC50 of one compound at a fixed dose of second compound. The EC50 shift was calculated by taking the ratio of the EC50 of the single agent by the EC50 at the maximum dose of the second agent.
(§4) Synergy was analyzed using the MacSynergy II program, which calculates a theoretical additive value for the drug combination that is based on the values generated by each drug alone using the Bliss Independence mathematical model. The Bliss independence model assumes that each drug acts independently. The theoretical additive effect for each compound is calculated and then subtracted from the actual effect. Synergy is defined by greater than expected effects while antagonism is defined by less than expected effects. In this example, a synergy volume greater than 50 was considered significant. The EC50 values determined in drug combination studies represent a single experiment run in quadruplicate and therefore may differ slightly from the single agent EC50 values.

OCI-LY10 cells = assay: as above; settings: for EC50: Homo sapiens; for growth of cell line: OCI-LY10, single agent
Description: as §1, §2, §3, §4

Ri-1 cells = assay: as above; settings: for EC50: Ri-1, Ri-1; for growth of cell line: single agent
Description: as §1, §2, §3, §4

Pfeiffer cells [1] = assay: as above; settings: for EC50: Homo sapiens
Description: as §1, §2, §3, §4

SU-DHL-8 cells = assay: ATPLite anti-proliferation assay (GI) and synergy score, 120 h
Description: (§5) The endpoint readout of the anti-proliferation assay was based upon quantitation of ATP as an indicator of viable cells. Cells were thawed from a liquid nitrogen preserved state. Once cells had been expanded and divided at their expected doubling times, screening began. Cells were seeded in growth media in black 384-well tissue culture treated plates at 500 cells per well (except where noted in Analyzer). Cells were equilibrated in assay plates via centrifugation and placed in incubators attached to the Dosing Modules at 37° C. for twenty-four hours before treatment. […] These Tzero (T0) plates were read using ultra-sensitive luminescence on Envision Plate Readers. Treated assay plates were incubated with the compound for one hundred twenty hours. After one hundred twenty hours, plates were developed for endpoint analysis using ATPLite. All data points were collected via automated processes; quality controlled; and analyzed using Horizon CombinatoRx proprietary software. Assay plates were accepted if they pass the following quality control standards: relative luciferase values were consistent throughout the entire experiment, Z-factor scores were greater than 0.6, untreated/vehicle controls behaved consistently on the plate.
(§6) Horizon Discovery utilized Growth Inhibition (GI) as a measure of cell viability. The cell viability of vehicle was measured at the time of dosing (T0) and after one hundred twenty hours (T120). A GI reading of 0% represented no growth inhibition—cells treated with compound and T120 vehicle signals were matched. […] A GI 200% represents complete death of all cells in the culture well. Compounds reaching an activity plateau of GI 200% were considered cytotoxic. Horizon CombinatoRx calculates GI by applying the following test and equation: […]
(§7) To measure combination effects in excess of Loewe additivity, Horizon Discovery has devised a scalar measure to characterize the strength of synergistic interaction termed the Synergy Score. The Synergy Score was calculated as:
(§8) Synergy Score=log fx log fyΣmax(0,Idata)(Idata−ILoewe)
(§9) The fractional inhibition for each component agent and combination point in the matrix was calculated relative to the median of all vehicle-treated control wells. The Synergy Score equation integrated the experimentally-observed activity volume at each point in the matrix in excess of a model surface numerically derived from the activity of the component agents using the Loewe model for additivity. Additional terms in the Synergy Score equation (above) were used to normalize for various dilution factors used for individual agents and to allow for comparison of synergy scores across an entire experiment. The inclusion of positive inhibition gating or an Idata multiplier removed noise near the zero effect level, and biased results for synergistic interactions at that occur at high activity levels.
(§10) The cell viability of vehicle was measured at the time of dosing (T0) and after 120 h (T120). […] To measure combination effects, excess of Loewe additivity was used to characterize the strength of synergistic interaction, termed the synergy score. The assay and synergy score analysis were performed in accordance with the protocol set forth in Example 1B above.
(§11) The assay and synergy score analysis were performed in accordance with the protocol set forth in Example 3A above.

Carnaval cells = assay: as above
Description: as §5, §6, §7, §8, §9, §10, §11

Pfeiffer cells [2] = assay: as above
Description: as §5, §6, §7, §8, §9, §10, §11

[3] = TMD8, TMD-8, bound stated for three ABC-DLBCL cell lines, read-out: EC50, growth inhibition, single agent
[4] = OCI-Ly10, OCI-LY10, bound stated for three ABC-DLBCL cell lines, read-out: EC50, growth inhibition, single agent
[5] = Idelalisib 0 nM, read-out: EC50 of Compound B in Combination with Idelalisib
[6] = bound stated for three ABC-DLBCL cell lines, read-out: EC50, growth inhibition, single agent
[7] = Compound B 45 nM, read-out: EC50 of Idelalisib when Combined with Compound B

CC#CC(=O)N1CC[C@@H](n2c(=O)n(-c3ccc(Oc4ccccc4)cc3)c3c(N)ncnc32)C1 [Compound B, 6-amino-9-[(3R)-1-(2-butynoyl)-3-pyrrolidinyl]-7-(4-phenoxyphenyl)-7,9-dihydro-8H-purin-8-one]
EC50 (TMD-8 cells; TMD8, TMD-8, Idelalisib 0 nM, read-out: EC50 of Compound B in Combination with Idelalisib): 0.011 µM | EC50 (TMD-8 cells; TMD8, TMD-8, Idelalisib 156 nM, read-out: EC50 of Compound B in Combination with Idelalisib): 0.005 µM | EC50 (TMD-8 cells; TMD8, TMD-8, Idelalisib 625 nM, read-out: EC50 of Compound B in Combination with Idelalisib): 0.004 µM | EC50 (TMD-8 cells; [3]): < 0.026 µM | growth of cell line (TMD-8 cells; TMD-8): inhibited the growth | Compound B EC50 shift (fold) (TMD-8 cells; TMD-8, single agent EC50 / EC50 at maximum dose of Idelalisib): 2.75 fold | EC50 (OCI-LY10 cells; [4]): < 0.026 µM | EC50 (OCI-LY10 cells; OCI-Ly10, OCI-LY-10, Idelalisib 0 nM, read-out: EC50 of Compound B in Combination with Idelalisib): 0.006 µM | EC50 (OCI-LY10 cells; OCI-Ly10, OCI-LY-10, Idelalisib 156 nM, read-out: EC50 of Compound B in Combination with Idelalisib): 0.003 µM | EC50 (OCI-LY10 cells; OCI-Ly10, OCI-LY-10, Idelalisib 625 nM, read-out: EC50 of Compound B in Combination with Idelalisib): 0.003 µM | growth of cell line (OCI-LY10 cells): inhibited the growth | Compound B EC50 shift (fold) (OCI-LY10 cells; OCI-LY-10, single agent EC50 / EC50 at maximum dose of Idelalisib): 2 fold | EC50 (Ri-1 cells; [5]): 0.005 µM | EC50 (Ri-1 cells; Idelalisib 156 nM, read-out: EC50 of Compound B in Combination with Idelalisib): 0.002 µM | EC50 (Ri-1 cells; Idelalisib 625 nM, read-out: EC50 of Compound B in Combination with Idelalisib): 0.002 µM | EC50 (Ri-1 cells; [6]): < 0.026 µM | growth of cell line (Ri-1 cells; Ri-1): inhibited the growth | Compound B EC50 shift (fold) (Ri-1 cells; Ri-1, single agent EC50 / EC50 at maximum dose of Idelalisib): 2.5 fold | EC50 (Pfeiffer cells [1]; [5]): > 10 µM | Compound B EC50 shift (fold) (Pfeiffer cells [1]; No EC50 shift observed at up to 2.5 μM): None^c | Max. Effect (% GI) (SU-DHL-8 cells): 1 % GI | Max. Effect (% GI) (Carnaval cells): 0 % GI | Max. Effect (% GI) (Pfeiffer cells [2]): 8 % GI

CCC(Nc1ncnc2[nH]cnc12)c1nc2cccc(F)c2c(=O)n1-c1ccccc1 (stereo not drawn) [Idelalisib, 2-(1-((9H-Purin-6-yl)amino)propyl)-5-fluoro-3-phenylquinazolin-4(3H)-one]
EC50 (TMD-8 cells; TMD8, TMD8, addition of Compound B at 6 nM, read-out: EC50 of idelalisib): 0.108 µM | EC50 (TMD-8 cells; TMD8, TMD8, addition of Compound B at 12 nM, read-out: EC50 of idelalisib): 0.034 µM | EC50 (TMD-8 cells; TMD8, TMD8, addition of Compound B at 25 nM, read-out: EC50 of idelalisib): 0.024 µM | EC50 (TMD-8 cells; TMD8, TMD8, without Compound B, read-out: EC50 of idelalisib): 0.254 µM | EC50 (TMD-8 cells; TMD8, TMD-8, Compound B 0 nM, read-out: EC50 of Idelalisib when Combined with Compound B): 0.254 µM | EC50 (TMD-8 cells; TMD8, TMD-8, Compound B 5 nM, read-out: EC50 of Idelalisib when Combined with Compound B): 0.13 µM | EC50 (TMD-8 cells; TMD8, TMD-8, Compound B 15 nM, read-out: EC50 of Idelalisib when Combined with Compound B): 0.032 µM | EC50 (TMD-8 cells; TMD8, TMD-8, Compound B 45 nM, read-out: EC50 of Idelalisib when Combined with Compound B): 0.024 µM | EC50 (TMD-8 cells; [3]): < 0.21 µM | growth of cell line (TMD-8 cells; TMD-8): inhibited the growth | Idelalisib EC50 shift (fold) (TMD-8 cells; TMD-8, single agent EC50 / EC50 at maximum dose of Compound B): 10.6 fold | EC50 (OCI-LY10 cells; OCI-Ly10, OCI-LY10, addition of Compound B at 6 nM, read-out: EC50 of idelalisib): 0.024 µM | EC50 (OCI-LY10 cells; OCI-Ly10, OCI-LY10, addition of Compound B at 12 nM, read-out: EC50 of idelalisib): 0.019 µM | EC50 (OCI-LY10 cells; OCI-Ly10, OCI-LY10, addition of Compound B at 25 nM, read-out: EC50 of idelalisib): 0.013 µM | EC50 (OCI-LY10 cells; [4]): < 0.21 µM | EC50 (OCI-LY10 cells; OCI-Ly10, OCI-LY10, without Compound B, read-out: EC50 of idelalisib): 0.122 µM | EC50 (OCI-LY10 cells; OCI-Ly10, OCI-LY-10, Compound B 0 nM, read-out: EC50 of Idelalisib when Combined with Compound B): 0.44 µM | EC50 (OCI-LY10 cells; OCI-Ly10, OCI-LY-10, Compound B 5 nM, read-out: EC50 of Idelalisib when Combined with Compound B): 0.038 µM | EC50 (OCI-LY10 cells; OCI-Ly10, OCI-LY-10, Compound B 15 nM, read-out: EC50 of Idelalisib when Combined with Compound B): 0.022 µM | EC50 (OCI-LY10 cells; OCI-Ly10, OCI-LY-10, Compound B 45 nM, read-out: EC50 of Idelalisib when Combined with Compound B): 0.005 µM | growth of cell line (OCI-LY10 cells): inhibited the growth | Idelalisib EC50 shift (fold) (OCI-LY10 cells; OCI-LY-10, single agent EC50 / EC50 at maximum dose of Compound B): 88 fold | EC50 (Ri-1 cells; Compound B 0 nM, read-out: EC50 of Idelalisib when Combined with Compound B): 0.442 µM | EC50 (Ri-1 cells; Compound B 5 nM, read-out: EC50 of Idelalisib when Combined with Compound B): 0.372 µM | EC50 (Ri-1 cells; Compound B 15 nM, read-out: EC50 of Idelalisib when Combined with Compound B): 0.372 µM | EC50 (Ri-1 cells; [7]): 0.372 µM | EC50 (Ri-1 cells; [6]): < 0.21 µM | growth of cell line (Ri-1 cells; Ri-1): inhibited the growth | Idelalisib EC50 shift (fold) (Ri-1 cells; Ri-1, single agent EC50 / EC50 at maximum dose of Compound B): 1.2 fold | EC50 (Pfeiffer cells [1]; [7]): 0.174 µM | Idelalisib EC50 shift (fold) (Pfeiffer cells [1]; single agent EC50 / EC50 at maximum dose of Compound B): 1 fold | Max. Effect (% GI) (SU-DHL-8 cells): 43 % GI | Max. Effect (% GI) (Carnaval cells): 62 % GI | Max. Effect (% GI) (Pfeiffer cells [2]): 33 % GI
